Assay results: patent US6531148B1, “Therapeutic agents” (Takara Shuzo Co., Ltd., priority 1998, dated 2003)

Tests used:
[1] = test system: α-glucosidase from rat small intestine mucous membrane; assay: α-Glucosidase inhibition test (crude enzyme from rat small intestine); type: biochemical; conditions: for relative activity: control without DGE = 100%
Experimental: (2) A crude enzyme preparation of α-glucosidase from rat small intestine mucous membrane [prepared according to the method as described in Arne Dahlqvist, Anal. Biochem., 7:18-25 (1964)] was used to measure the activity of inhibiting α-glucosidase of DGE as follows.
For the enzymatic reaction, 80 μl of a solution of sucrose, maltose, treharose or soluble starch as a substrate in 10 mM phosphate buffer (pH 7.0) buffer at a final concentration of 100 mM (0.5% for soluble starch) was added to 10 μl of a test sample solution appropriately diluted with the same buffer. 10 μl of the crude enzyme solution prepared from rat small intestine was added thereto. The mixture was reacted at 37° C. for 20 minutes.
The enzymatic reaction was assessed by adding 3 ml of a reagent for glucose measurement (Wako Pure Chemical Industries) to the reaction mixture, reacting at 37° C. for 5 minutes and then measuring the absorbance at 505 nm as the glucose content in the mixture.
The inhibitory activity of DGE on the digestion of each substrate by α-glycosidase was measured using DGE at four different concentrations according to the above-mentioned method. The activity of inhibiting α-glycosidase was expressed as a relative activity (%) defining the activity of the control without DGE as 100%.

[2] = test system: prostaglandin E2 production induced by LPS in RAW264.7 cells; assay: Prostaglandin E2 production inhibition test; type: cell-based
Experimental: RAW264.7 cells were suspended in Dulbecco's modified Eagle's medium containing 10% fetal bovine serum at a concentration of 3×10^5 cells/ml. 500 μl of the suspension was added to each well of a 48-well microtiter plate and the plate was incubated at 37° C. for 6 hours in the presence of 5% CO2. 10 μl of an aqueous solution prepared by dissolving DGE at a concentration of 0.5 mM in water and sterilizing it by filtration was added to the well. The plate was incubated for additional 0.5 or 5 hours. 10 μl of 50 μg/ml aqueous LPS solution was then added to the well. After the plate was incubated for additional 12 hours, the amount of prostaglandin E2 was measured. As control groups, a group to which LPS was not added and a group to which DGE was not added were provided.
After cultivation, the amount of prostaglandin E2 in the culture supernatant was measured using Prostaglandin E2 ELISA Kit (Neogen, Code. 404110). All of the measurements were carried out in triplicate.
RAW264.7 cells were suspended in Dulbecco's modified Eagle's medium without phenol red containing 10% fetal bovine serum and 2 mM L-glutamine at a concentration of 3×10^5 cells/ml. 500 μl of the suspension was added to each well of a 48-well microtiter plate and the plate was incubated at 37° C. for 12 hours in the presence of 5% CO2. 10 μl of 50 μg/ml aqueous lipoplysaccharide solution and 10 μl of an aqueous solution prepared by dissolving DGE-GSH prepared in Example 13-(1) at a concentration of 1 mM in water and sterilizing it by filtration were then added to the well. After the plate was incubated for additional 16 hours, the amount of prostaglandin E2 was measured. As control groups, a group to which LPS was not added and a group to which DGE-GSH was not added were provided.
After cultivation, the amount of prostaglandin E2 in the culture supernatant was measured using Prostaglandin E2 ELISA Kit (Neogen, Code. 404110).

α-glucosidase from yeast = assay: α-Glucosidase inhibition test (yeast enzyme); type: biochemical; conditions: for Remaining activity: activity without test sample = 100%; for Absorbance (OD 410 nm): without DGE 0.444
Experimental: (1) The activity of inhibiting α-glucosidase of DGE was measured by reacting p-nitrophenyl-α-D-glucopyranoside, a chromogenic substrate for α-glucosidase, with α-glucosidase from yeast and calorimetrically quatifying 4-nitrophnol released by hydrolysis. Briefly, 10 μl of α-glucosidase solution [40 mU/ml, derived from S. cerevisiae, Sigma, dissolved in 10 mM phosphate buffer (pH 7.2 at 37° C.)] and 10 μl of a solution containing a test sample dissolved in 10 mM phosphate buffer (pH 7.2 at 37° C.) were mixed. 80 μl of a 1.5 mg/ml substrate solution [Sigma, dissolved in 10 mM phosphate buffer (pH 7.2 at 37° C.) was added thereto to initiate the reaction. After reacting at 37° C. for 40 minutes, the absorbance at 410 nm was measured (Shimadzu uv2200). The remaining activity therein was calculated defining the activity without the test sample as 100%.

HL-60 cells = assay: Apoptosis induction test; type: cell-based
Experimental: (1) HL-60 cells were cultured at 37° C. in RPMI 1640 medium (Bio Whittaker) containing 10% of fetal bovine serum (JRH), which had been treated at 56° C. for 30 minutes, and suspended in RPMI 1640 medium at a concentration of 2.5×10^5 cells/4.5 ml.
500 μl of at 125 μM, 250 μM, 500 μM, 1 mM, 2 mM or 4 mM aqueous DGE solution was added to 4.5 ml of the suspension. The mixtures were incubated at 37° C. for 24 hours in the presence of 5% CO2.
The cultured cells were examined under an optical microscope.
Measurement of apoptotic cells using FACScan as described in Saibo Kogaku, Bessatsu (Cell Technology, Suppl.) Jikken Protocol Series: Apoptosis Jikken Protocol (Experimental Protocol Series: Experimental Protocols for Apoptosis) (Shujun-sha) pp. 129-130 and analysis of DNA fragmentation as described in Bio Manual UP Series: Saishin Apoptosis Jikken-ho (Bio Manual UP Series: Current Experimental Methods for Apoptosis) (Yodo-sha) pp. 61-63 were carried out using cells cultured for 24 or 48 hours in the same manner as that described above.
(2) A portion of the cells cultured for 24 hours as described in Example 2-(1) was stained with 0.4% Trypan Blue and examined under an optical microscope. The number of viable cells which were not stained and the number of dead cells which were stained blue were counted. The concentration of DGE that results in a viability of 50% [Viability50 (μM)] was determined to be 81.7 μM.

Molecule: 5-L-glutathion-S-yl-2-hydroxy-3,7-dioxabicyclo[2.2.2]octan-1-ol [DGE-GSH]
- activities of inhibiting α-glycosidase [1]: also exhibited similar activities of inhibiting α-glycosidase
- prostaglandin E2 concentration in the medium ([2]; LPS, 10 μl of 1 mM DGE-GSH per 500 μl well, 16 hours, control 63.4 ng/ml, no addition 50.3 ng/ml): 50.7 ng/mL

Molecule: O=C1C=CC(CO)OC1O [DGE, L-glycero-1,5-epoxy-1αβ,6-dihydroxy-cis-hex-3-en-2-one]
- relative activity ([1]; substrate Maltose, DGE 0.2 mM): 96%
- relative activity ([1]; substrate Maltose, DGE 0.5 mM): 97%
- relative activity ([1]; substrate Maltose, DGE 1.0 mM): 100%
- relative activity ([1]; substrate Maltose, DGE 2.0 mM): 96%
- relative activity ([1]; substrate Soluble starch, DGE 0.2 mM): 100%
- relative activity ([1]; substrate Soluble starch, DGE 0.5 mM): 95%
- relative activity ([1]; substrate Soluble starch, DGE 1.0 mM): 91%
- relative activity ([1]; substrate Soluble starch, DGE 2.0 mM): 92%
- relative activity ([1]; substrate Treharose, DGE 0.2 mM): 98%
- relative activity ([1]; substrate Treharose, DGE 0.5 mM): 96%
- relative activity ([1]; substrate Treharose, DGE 1.0 mM): 99%
- relative activity ([1]; substrate Treharose, DGE 2.0 mM): 100%
- Remaining activity (α-glucosidase from yeast; DGE added 5 μM): 98%
- Absorbance (OD 410 nm) (α-glucosidase from yeast; DGE added 5 μM): 0.433
- Remaining activity (α-glucosidase from yeast; DGE added 50 μM): 90%
- Absorbance (OD 410 nm) (α-glucosidase from yeast; DGE added 50 μM): 0.401
- Remaining activity (α-glucosidase from yeast; DGE added 500 μM): 50%
- Absorbance (OD 410 nm) (α-glucosidase from yeast; DGE added 500 μM): 0.221
- Remaining activity (α-glucosidase from yeast; DGE added 1000 μM): 26%
- Absorbance (OD 410 nm) (α-glucosidase from yeast; DGE added 1000 μM): 0.114
- Remaining activity (α-glucosidase from yeast; DGE added 5000 μM): 19%
- Absorbance (OD 410 nm) (α-glucosidase from yeast; DGE added 5000 μM): 0.083
- IC50 (α-glucosidase from yeast; substrate p-nitrophenyl-α-D-glucopyranoside, read-out: concentration of DGE that inhibits α-glucosidase activity by 50% (IC50)): 500 µM
- antiproliferation activity against tumor cells due to the apoptosis-inducing activity (HL-60 cells): exhibited an antiproliferation activity against tumor cells
- DNA fragmentation (HL-60 cells; 24 or 48 hours, DGE at 50 or 100 μM): DNA fragmentation was observed
- final concentration at which apoptotic cells were observed (HL-60 cells; 24 or 48 hours, FACScan): ≥ 50 µM
- final concentration at which condensation of nuclei, shrinking of cells and formation of apoptotic bodies were observed (HL-60 cells; 24 hours, optical microscope): ≥ 50 µM
- IC50 (HL-60 cells; Homo sapiens, 24 hours, Trypan Blue, read-out: Viability50, concentration that results in a viability of 50%): 81.7 µM
- inhibition of prostaglandin E2 production, 5 hours pre-incubation with DGE compared with 0.5 hour ([2]; DGE added before LPS): stronger inhibition of prostaglandin E2 production
- inhibition of prostaglandin E2 production induced by LPS ([2]; ELISA): inhibited the prostaglandin E2 production induced by LPS

Molecule: O=C1C=CC(CO)OC1O [κ-DGE, D-glycero-1,5-epoxy-1αβ,6-dihydroxy-cis-hex-3-en-2-one]
- activities of inhibiting α-glycosidase [1]: also exhibited similar activities of inhibiting α-glycosidase
- antiproliferation activity against tumor cells due to the apoptosis-inducing activity (HL-60 cells): exhibited a similar activity
